According to US20070167424A1, “Aztreonam L-lysine and methods for the preparation thereof” (priority 2003, published 2007):

Tests used:
[1] = Storage stability: assay of Aztreonam by HPLC after storage; assay type: physicochemical
Experimental: (§1) The Aztreonam L-lysine obtained using these methods was stable in the sense that during 3 months at 2-8° C.:
1. the assay of Aztreonam was maintained constant in the limit 60-66%; and The assay of Aztreonam Lysine salt using the HPLC method was determined as follows: a. Dissolving Aztreonam Lysine salt sample in a mixture of 0.02 M KH2PO4 buffer solution (pH adjusted 3.0 with 25 w/w % phosphoric acid) and methanol (80:20) diluent, b. Injecting the sample solution (ca. 10 μl) into a 50.0 mm×4.6 mm, 3 μm RP-18 HPLC column, c. Isocratic eluting at 1.5 ml/min with a mixture of 0.02 M KH2PO4 buffer solution (pH adjusted 3.0 with 25 w/w % phosphoric acid) and methanol in a 83:17 v/v % ratio. d. Measuring of the amounts of each impurity at 270 nm wavelength with a UV detector and appropriate recording device. e. Calculating of the assay referring to the Aztreonam working standard at a concentration of 100 [g/ml.
In the above method, Aztreonam has a retention time of about 2.3 minutes

[2] = Storage stability: impurity content by HPLC after storage; assay type: physicochemical
Experimental: as §1
2. no impurity exceed 0.3 area %.
The impurity content of Aztreonam lysine salt using the HPLC method is determined as follows:
a. Aztreonam Lysine salt sample is dissolved in 0.02 M KH2PO4 buffer solution (pH adjusted 2.0 with 25 w/w % phosphoric acid) diluent,
b. The sample solution (ca. 10 μl) is injected into a 100.0 mm×4.0 mm, 3 μm RP-1 8 HPLC column,
c. Gradient eluting with a mixture of 0.02 M KH2PO4 buffer solution (pH adjusted 3.0 with 25 w/w % phosphoric acid) (A) and acetonitrile (B) according to the following profile:
d. The amounts of each impurity was measured at 230 nm wavelength with a UV detector and appropriate recording device.
e. The amount of each impurity was calculated referring to an Aztreonam working standard at a concentration of […].
In the above method, Aztreonam has a retention time of about 10.2 minutes.

[3] = after storage for three months at about 2-8° C.

SMILES: C[C@H]1[C@H](NC(=O)/C(=N\OC(C)(C)C(=O)O)c2csc(N)n2)C(=O)N1S(=O)(=O)O.NCCCC[C@H](N)C(=O)O [Aztreonam L-lysine]
- assay of Aztreonam maintained constant in the limit ([1]; during 3 months at 2-8° C.): 60-66%
- no impurity exceed (largest single impurity) ([2]; during 3 months at 2-8° C.): ≤ 0.3 area %

SMILES: C[C@H]1[C@H](NC(=O)/C(=N\OC(C)(C)C(=O)O)c2csc(N)n2)C(=O)N1S(=O)(=O)O.NCCCC[C@H](N)C(=O)O [Example 2, Aztreonam L-lysine salt]
- maintains at least about ... of the Aztreonam [1, 3]: at least 63 weight %
- does not contain any impurity exceeding [2, 3]: ≤ 0.3 area %
